From the supplement of paper PMC12317010
Where a name gives a salt, the structure may show the parent alone.

Assay: collision cross section in nitrogen (drift tube, single-field); higher = larger gas-phase ion size
[1] = ion type: [M-H], ion source: ESI, ion mode: Negative
[2] = ion type: [M+Na], ion source: ESI, ion mode: Positive
[3] = ion type: [M+H], ion source: ESI, ion mode: Positive
[4] = ion type: [M+H], ion source: APCI, ion mode: Positive
[5] = ion type: [M+], ion source: APCI, ion mode: Positive
[6] = ion source: APCI, ion mode: Positive, ion type: [M]+ (permanent cation)
[7] = ion source: ESI, ion mode: Positive, ion type: [M]+ (permanent cation)
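Note: chemical standards at 10 µM analysed by drift tube IMS-QTOF MS in about 3.95 torr nitrogen, mean of duplicate injections differing ≤1%, mass error below 10 ppm.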

| SMILES | collision cross section in nitrogen [1] [Å²] | collision cross section in nitrogen [2] [Å²] | collision cross section in nitrogen [3] [Å²] | further results |
| --- | --- | --- | --- | --- |
| N[C@@H](CCC(=O)O)C(=O)O [Sodium L-glutamate hydrate] | 125.4 |  |  |  |
| C=C(C)C(=O)OCCCCCCOC(=O)C(=C)C [1,6-Hexanediol dimethacrylate] |  | 167.3 |  |  |
| O=C(O)CCCc1c[nH]c2ccccc12 [Indole-3-butyric acid] | 154.8 |  |  |  |
| CCCCN1C(=O)[C@@H]([C@H](O)C2CCCCC2)NC(=O)C12CCN(Cc1ccc(Oc3ccc(C(=O)O)cc3)cc1)CC2 [Aplaviroc hydrochloride] | 235.7 | 238.6 | 260.4 |  |
| C#CCOC(=O)[C@@H](C)Oc1ccc(Oc2ncc(Cl)cc2F)cc1 [Clodinafop-propargyl] |  | 176.2 | 178 |  |
| CN1CCC[C@H]1c1cccnc1 [(-)-Nicotine] |  |  | 137.2 | collision cross section in nitrogen [4]: 136.5 Å² |
| CCOP(=S)(OCC)SCSP(=S)(OCC)OCC [Ethion] |  | 182.3 |  |  |
| O=C(Nc1ccccc1)c1cc2ccccc2cc1O [3-Hydroxy-2-naphthanilide] | 160.7 |  | 160.7 | collision cross section in nitrogen [4]: 160.9 Å² |
| COc1cc(S(=O)(=O)O)c(C)cc1N=Nc1c(O)ccc2cc(S(=O)(=O)O)ccc12 | 214.8 |  |  |  |
| CCCCCCCCCCCCCC(=O)OCC [Ethyl tetradecanoate] | 169.8 |  |  |  |
| O=C1c2ccc(O)c(O)c2C(=O)c2c(O)ccc(O)c21 [Quinalizarin] | 150.5 |  |  |  |
| CC(CCCCN)C(C)(C)N (stereo not given) [Trimethylhexane-1,6-diamine] |  |  | 140.4 |  |
| O=P1(N(CCCl)CCCl)NCCCO1 (stereo not given) [Cyclophosphamide] |  | 154.6 | 147.7 | collision cross section in nitrogen [4]: 147.8 Å² |
| CC[C@H](C)C(=O)O[C@H]1C[C@H](O)C=C2C=C[C@H](C)[C@H](CC[C@@H](O)C[C@@H](O)CC(=O)O)[C@H]21 [Pravastatin sodium] | 201.5 | 206.7 |  |  |
| CC(=O)NCCCS(=O)(=O)O [1-Propanesulfonic acid, 3-(acetylamino)-, calcium salt (2:1)] | 134.9 |  |  |  |
| CCCCCCOC(=O)CC(CC(=O)OCCCCCC)(OC(=O)CCC)C(=O)OCCCCCC [Butyryl-n-trihexylcitrate] |  | 245.5 |  |  |
| CCN(CC)C(=S)SSC(=S)N(CC)CC [Tetraethylthiuram disulfide] |  | 173.2 |  |  |
| O=C(N[C@@H](c1ccccc1)[C@@H]1CCCCN1)c1cccc(C(F)(F)F)c1Cl | 191.6 | 200.2 | 190.4 | collision cross section in nitrogen [4]: 190.3 Å² |
| COC(=O)c1ccccc1CS(=O)(=O)NC(=O)Nc1nc(OC)cc(OC)n1 [Bensulfuron-methyl] |  | 197.8 |  |  |
| CN1C(=CC=O)C(C)(C)c2ccccc21 [1,3-Dihydro-1,3,3-trimethyl-2H-indol-2-ylidene acetaldehyde] |  |  | 145.1 | collision cross section in nitrogen [4]: 144.6 Å²; collision cross section in nitrogen [5]: 143.2 Å² |
| CCCCCCCCCCCCN(CCO)CCO [Lauryldiethanolamine] |  | 180.3 | 184.1 | collision cross section in nitrogen [4]: 183.7 Å² |
| CCCCCCCC/C=C\CCCCCCCC(=O)OC[C@@H](O)[C@H]1OC[C@H](O)[C@H]1O [Sorbitan, mono-(9Z)-9-octadecenoate] | 207.7 | 211.8 |  |  |
| CCOC(=O)CC(CC(=O)OCC)(OC(C)=O)C(=O)OCC [Citric acid, triethyl ester, acetate] |  | 175.4 |  |  |
| Nc1cc(-c2ccncc2)c[nH]c1=O [Amrinone] | 140.7 |  | 143.3 | collision cross section in nitrogen [4]: 142.7 Å² |
| O=S(=O)(NS(=O)(=O)C(F)(F)F)C(F)(F)F [Lithium bis[(trifluoromethyl)sulfonyl]azanide] | 129.9 |  |  |  |
| CNc1cccc2c1C(=O)c1ccccc1C2=O [1-(Methylamino)anthraquinone] |  |  | 151.6 |  |
| CCOC(=O)CC(SP(=O)(OC)OC)C(=O)OCC (stereo not given) [Malaoxon] |  | 165.7 |  |  |
| CNC[C@H](O)[C@@H](O)[C@H](O)[C@H](O)CO [(2R,3R,4R,5S)-6-(Methylamino)hexane-1,2,3,4,5-pentol] | 140.4 | 147.7 | 141.3 | collision cross section in nitrogen [4]: 141 Å² |

| SMILES | collision cross section in nitrogen [1] [Å²] | collision cross section in nitrogen [2] [Å²] | collision cross section in nitrogen [3] [Å²] | further results |
| --- | --- | --- | --- | --- |
| O=S(=O)(O)C(F)(F)C(F)(F)C(F)(F)C(F)(F)F [Perfluorobutanesulfonic acid] | 133.8 |  |  |  |
| Oc1ccc2ccc3cccc4ccc1c2c34 [1-Hydroxypyrene] | 146.2 |  |  | collision cross section in nitrogen [5]: 141.9 Å² |
| c1coc(CNc2[nH]cnc3ncnc2-3)c1 [Kinetin] | 148.4 | 159.2 | 144.4 | collision cross section in nitrogen [4]: 144.3 Å² |
| CC(C)(C)c1cc(O)c(C(C)(C)C)cc1O [2,5-Di-tert-butylbenzene-1,4-diol] |  |  |  | collision cross section in nitrogen [5]: 155.1 Å² |
| Cc1ccnc2ccccc12 [Lepidine] |  |  | 125.4 | collision cross section in nitrogen [4]: 126.3 Å²; collision cross section in nitrogen [5]: 125.4 Å² |
| CCCCNC(=O)NS(=O)(=O)c1ccc(N)cc1 [Carbutamide] | 165 | 175.6 |  |  |
| CCCCNC(=S)NCCCC [N,N'-Dibutylthiourea] | 148.4 |  | 148.8 | collision cross section in nitrogen [4]: 148.6 Å² |
| CCCCCCC(=O)O [Heptanoic acid] | 137.3 |  |  |  |
| CCCCCCCCCCCCCCCC[N+](C)(C)CC [Quaternium 17] |  |  |  | collision cross section in nitrogen [6]: 196.1 Å²; collision cross section in nitrogen [7]: 197.2 Å² |
| COc1ccccc1OCC(O)COC(N)=O (stereo not given) [Methocarbamol] |  | 154.6 |  |  |
| O=P(O)(O)c1ccccc1 [Phenylphosphonic acid] | 130.1 |  |  |  |
| CC(C)(CO)COC(=O)C(C)(C)CO |  | 151.6 |  |  |
| Cc1cc(=O)nc(C(C)C)[nH]1 [2-Isopropyl-6-methyl-4-pyrimidone] | 135.5 | 146.4 | 132.5 | collision cross section in nitrogen [4]: 133.9 Å² |
| CC1CN(c2ccccc2)NC1=O (stereo not given) [4-Methyl-1-phenylpyrazolidin-3-one] |  |  |  | collision cross section in nitrogen [5]: 138 Å² |
| CCCCOCCOCCOCCO [2-[2-(2-Butoxyethoxy)ethoxy]ethanol] |  | 150.9 |  |  |
| COC(=O)C1=C(C)NC(C)=C(C(=O)OCC(C)C)C1c1ccccc1[N+](=O)[O-] (stereo not given) [Nisoldipine] |  | 195.5 |  |  |
| Cc1ccc(NC=O)c(C)c1 [N-(2,4-Dimethylphenyl)formamide] | 133.8 |  |  |  |
| C[C@H]1O[C@@H](O[C@H]2[C@@H](O)C[C@H](O[C@H]3[C@@H](O)C[C@H](O[C@H]4CC[C@@]5(C)[C@H](CC[C@@H]6[C@@H]5C[C@@H](O)[C@]5(C)[C@@H](C7=CC(=O)OC7)CC[C@]65O)C4)O[C@@H]3C)O[C@@H]2C)C[C@H](O)[C@@H]1O [Digoxin] | 269.7 | 276.8 |  |  |
| COc1ccc(-n2nc(C(F)F)cc2-c2ccc(S(C)=O)cc2)cc1 (stereo not given) [Difpas-pyrazole] |  |  | 187.4 | collision cross section in nitrogen [4]: 187.8 Å² |
| O=C(O)CONC(=O)c1ccccc1 [Benzadox] |  | 150.9 |  |  |
| CCOc1ccc(NC(=O)OC(C)C)cc1OCC [Diethofencarb] | 171.9 | 177.1 |  |  |
| C[C@]12CC[C@H]3[C@@H](CCC4=CC(=O)CC[C@@]43C)[C@@H]1CC[C@@H]2C(=O)CO [21-Hydroxyprogesterone] | 186.5 |  | 185.7 |  |
| Cc1cc(-n2nc3ccc(Cl)cc3n2)c(O)c(C(C)(C)C)c1 [Bumetrizole] | 183.2 |  |  |  |
| CCCCCCCCCCCCCC[P+](CCCC)(CCCC)CCCC [Tributyltetradecylphosphonium chloride] |  |  |  | collision cross section in nitrogen [6]: 224 Å²; collision cross section in nitrogen [7]: 224.5 Å² |
| O=C1c2ccccc2C(=O)c2c(O)ccc(O)c21 [1,4-Dihydroxyanthracene-9,10-dione] | 148.9 |  |  |  |
| CCCCCCCCCC(=O)O [Decanoic acid] | 149.5 |  |  |  |
| O=C(OCCCCCCOC(=O)c1ccccc1)c1ccccc1 [Hexane-1,6-diyl dibenzoate] |  | 189.8 |  |  |
